Laboratory results taken from US11738067B2, “Elevated intracranial pressure treatment” (INVEX THERAPEUTICS LTD., priority 2014, dated 2023).
Entries after “also recorded” stand apart in the source; their conditions may differ. The star is where a group is joined. Myristoyl = CCCCCCCCCCCCCC(=O)*

Legend:
[1] = IIH patients, cited from earlier work; for visual field grades: no significant difference between groups
[2] = Clinical observation of ICP in IIH patients treated with diuretics; type: in vivo
[3] = test system: Na^+K^+ATPase; settings: literature refs 10, 13-15; cited from earlier work
[4] = test system: Na^+K^+ATPase; assay: Na+K+ATPase activity assay in CPe cells; type: cell-based, rat
Procedure: (§1) Choroid plexus tissue from lateral and fourth ventricles were dissected and incubated with 0.25% trypsin solution for 2.5 hours at 4° C. followed by 30 minutes at 37° C. Trypsin digestion was stopped by the addition of newborn calf serum and the cell suspension was centrifuged at 20 g for 10 minutes. Cells were resuspended in DMEM/F12 supplemented with 10% FBS, 1% penicillin/streptomycin, 4 mM L-glutamine, 200 ng/ml hydrocortisone, 5 ng/ml sodium selenite and 10 ng/ml EGF. 20 μM cytosine arabinoside was used for the first 4 days in culture to limit the growth of fibroblasts (Gath et al., 1997). Initially the cells were seeded onto a laminin coated 6 well plate and allowed to grow for 2 days before being transferred to laminin coated 96 well plates or 12 well inserts (Greiner Bio-One Ltd). On day 4 the media was replaced with DMEM/F12 supplemented with 10% FBS and 1% penicillin/streptomycin and changed every 2-3 days. After reaching confluency, CPe cells were serum deprived for 3 days prior to the beginning of the studies (between days 10-14).
The effect of Exendin-4 on Na^+K^+ATPase activity in the choroid plexus was evaluated by the colorimetric measurement of phosphate released from ATP with the use of a phosphate assay kit (ab65622, Abcam); with Na^+K^+ATPase activity being defined as the portion of phosphate produced that is sensitive to Ouabain. CPe cells were incubated with aCSF for 1 hour at 37° C. before incubation in aCSF containing; 100 nM Exendin-4 (n=7), 5 μM PKI-16-22-amide (n=8), 100 nM Exendin-4+5 μM PKI-16-22-amide (n=8); in the presence and absence of 1 mM Ouabain for 30 minutes at 37° C. The cells were then lysed on ice and spun at 13,000 g to remove cell debris. Phosphate was measured as per the manufacturer's instructions. Briefly the samples were added to the reaction mix and incubated at room temperature for 60 minutes before the plate was read at 690 nm. Na^+K^+ATPase activity was calculated as the difference between the amount of phosphate produced in the presence and absence of Ouabain for each treatment.

[5] = molecular target: T1, GLP-1R (Rattus norvegicus, UniProt P32301); assay: cAMP levels in choroid plexus explants; type: cell-based; settings: 3 hours, vs aCSF
T1 construct: The choroid plexus from the lateral ventricles were dissected and placed in artificial CSF; from tissue; host or cells: rat choroid plexus explants (lateral ventricles)
T1 sequence (P32301 22-463): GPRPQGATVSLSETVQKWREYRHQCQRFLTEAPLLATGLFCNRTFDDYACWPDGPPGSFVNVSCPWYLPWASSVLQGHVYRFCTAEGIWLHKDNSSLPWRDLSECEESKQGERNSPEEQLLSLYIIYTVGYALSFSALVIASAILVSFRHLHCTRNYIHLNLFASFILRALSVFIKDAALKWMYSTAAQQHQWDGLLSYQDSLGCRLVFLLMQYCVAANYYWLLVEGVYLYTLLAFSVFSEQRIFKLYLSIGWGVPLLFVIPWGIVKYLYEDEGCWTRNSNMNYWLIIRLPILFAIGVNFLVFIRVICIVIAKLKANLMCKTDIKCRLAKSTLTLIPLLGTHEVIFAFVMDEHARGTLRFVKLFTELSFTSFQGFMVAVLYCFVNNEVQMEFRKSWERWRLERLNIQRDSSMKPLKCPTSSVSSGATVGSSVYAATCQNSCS
Procedure: Histogram of mean±SEM of cAMP levels in choroid plexus explants in the 3 groups. The normal levels of cAMP observed with aCSF were increased after the addition of Exendin-4 (GLP-1R agonist) for 3 hours. Forskolin, an adenylate cyclase activator, acted as a positive control for cAMP levels;

[6] = test system: rat choroid plexus explants; assay: Intracellular Na+ levels (Sodium Green) in choroid plexus explants; type: cell-based; settings: artificial CSF+Exendin-4 for 3 hours vs no treatment
Procedure: Intracellular Na^+ levels were observed using Sodium Green (iNa^+) (life technologies). Briefly, rat choroid plexus explants were incubated with iNa^+ for 30 minutes before treatment with artificial CSF (no treatment) or artificial CSF+Exendin-4 for 3 hours. The fluorescence intensity directly correlates with the amount of intracellular Na^+.

[7] = molecular target: T1, GLP-1R; assay: cAMP assay in primary CPe cells; type: cell-based
Procedure: as §1
The effect of Exendin-4 on the downstream GLP-1R signalling pathway was assessed by measuring the levels of cAMP in CPe cells using the Amersham cAMP Biotrak Enzyme immunoassay (EIA) System (RPN 225, GE Healthcare Life Sciences). […] The cells were subsequently lysed and cAMP detected according to the manufacturer's instructions.

[8] = molecular target: T1, GLP-1R; assay: GLP-1R localisation by immunofluorescent staining in choroid plexus explants; type: cell-based; settings: 100 nM
Procedure: (§2) The choroid plexus from the lateral ventricles were dissected and placed in artificial CSF (aCSF; 118 mM NaCl, 22 mM NaHCO3, 1.45 mM K2HPO4, 1 mM MgSO4, 1 mM CaCl2 and 10 mM glucose). To evaluate the effects of Exendin-4 on GLP-1R localisation within the cell, the explants were incubated with aCSF containing 100 nM Exendin-9 for 15 minutes or 100 nM Exendin-4 for 15 and 30 minutes. The explants were then fixed and stained following the protocol described below. To determine the effects of Exendin-4 on GLP-1R mRNA expression and protein levels the explants were incubated with aCSF containing 100 nM Exendin-4 for 3 and 6 hours, immediately frozen in liquid nitrogen and stored at −80° C.
For fluorescence labelling of choroid plexus explants and CPe cells, cells were first fixed in PBS containing 2% PFA and 2% glucose for 20 minutes at room temperature, washed in PBS and then permeabilised with methanol for 6 minutes at room temperature. The cells were stained using the same technique described above except that PBST was substituted with PBS.
Stained cells and sections were viewed under a Zeiss LSM 510 UV-confocal microscope (Carl Zeiss) and multiple Z-stack images were taken.

[9] = molecular target: T1, GLP-1R; assay: GLP-1R mRNA (qPCR) and protein (western blot) in choroid plexus explants; type: cell-based; settings: 100 nM
Procedure: as §2
For qPCR studies, hypothalamus, anterior pituitary and choroid plexus were dissected, immediately frozen in liquid nitrogen and stored at −80° C. Primary cultures of CPe cells were grown on 12 well inserts until confluency. Total RNA was extracted using the GenElute mammalian total RNA extraction kit (Sigma-Aldrich) and carried out according to the manufacturer's instructions. RNA was reverse transcribed to complementary DNA (cDNA) using a high capacity reverse transcription kit according to the manufacturer's protocol (Life Technologies). Taqman Gene Expression Assays (Life Technologies) were used to assess the expression of GLP-1R (assay number Rn00562406_m1). The 18S ribosomal subunit was used as an endogenous reference (4319413E) and samples were run in triplicate. The cycle number at which the particular sample crossed that threshold (Ct) was used to determine the levels of gene expression and ΔCt was calculated as the difference between the Ct (gene of interest) and the Ct (endogenous reference).
The hypothalamus, pituitary and choroid plexus were dissected, immediately frozen in liquid nitrogen and stored at −80° C. Tissues were homogenised in ice cold lysis buffer (20 mM Tris-HCl pH 7.4, 150 mM NaCl, 1 mM EDTA, 0.5 mM EGTA, 1% NP-40 containing protease inhibitor) and centrifuged at 13,000 g to remove cell debris. CPe cells were grown on 12 well inserts until confluency. Cell and tissue lysates (3 μg protein) were separated on an 8% SDS-PAGE gel. […] After washing in TBST the membranes were incubated with HRP-conjugated secondary antibody diluted in milk/TBST for 1 hour at room temperature. The bands were detected using ECL reagents (Amersham) and developed onto film.

[10] = ICP recordings in conscious rats (epidural pressure bolt); type: in vivo, rat; settings: for change in ICP from baseline: 30 and 60 minutes post treatment
Procedure: This procedure and its validation were recently published as a methodological work and contains all technical and surgical detail (Uldall et al, 2014). In brief, rats were anaesthetised (2.7 ml/kg subcutaneous injection containing 1.25 mg/ml midazolam, 2.5 mg/ml fluanisone and 0.079 mg/ml fentanylcitrate). The rat was placed in a stereotactic frame (David Kopf Instruments) and a 2 cm-midline incision was performed on top of the skull and the bone was exposed by retracting the skin and soft tissue. A dental drill was used to induce 4 burr holes in the skull; one large hole was carefully drilled to expose the dura mater to enable placement of the epidural pressure bolt (C313G-3UP, PlasticsOne), with the cannula cut to be level with the base of the pedestal. The other 3 smaller holes were used to fit anchoring screws to the skull. The epidural pressure bolt and the anchoring screws were placed and aligned with the interior surface of the skull and secured using dental resin-cement (Clearfil SA Cement, RH Dental). The epidural pressure bolt and the transducer (DTX-Plus™, Argon Medical Devices) were then connected by a polyethylene tube filled with sterile water, ensuring the absence of air bubbles.
The pressure signal was visualised and recorded using Perisoft v.2.5.5 (Perimed). Correct ICP signal was confirmed by the transient elevation of ICP after jugular vein compression. When the ICP recording procedure was completed the epidural pressure bolt was closed with a bite proof cap (303DCFTX2, PlasticsOne) and the rat allowed to recover.
In order to perform recordings in conscious animals, rats were sedated with midazolam (2.5 mg/kg subcutaneous injection) and the transducer connected to the epidural pressure bolt. […] The ICP signal was again confirmed by jugular vein compression as described above. […]

## CC(=O)Nc1nnc(S(N)(=O)=O)s1 [Acetazolamide]
[1]
  visual field grades: improved from baseline

## CC1(C)O[C@@H]2[C@@H](CO[C@@]3(COS(N)(=O)=O)OC(C)(C)O[C@@H]23)O1 [Topiramate]
[1]
  visual field grades: improved from baseline
  therapeutic benefit on IIH versus acetazolamide control cohort: no therapeutic benefit on IIH was noted above the control cohort
  weight loss: induce weight loss

## NS(=O)(=O)c1cc(C(=O)O)c(NCc2ccco2)cc1Cl [furosemide]
[2]
  effects on ICP in IIH patients: clinically beneficial effects on ICP

## C[C@@H]1O[C@@H](O[C@H]2C[C@@H](O)[C@]3(CO)[C@H]4[C@H](O)C[C@]5(C)[C@@H](C6=CC(=O)OC6)CC[C@]5(O)[C@@H]4CC[C@]3(O)C2)[C@H](O)[C@H](O)[C@H]1O [ouabain, Ouabain]
[3]
  CSF secretion: totally inhibited

## Exendin-4
[4]; 100 nM, 30 minutes, FIG. 10B
  Na+K+-ATPase activity compared to control (in words): reduced
[4]; 100 nM, 30 minutes, ouabain-sensitive
  Na+K+ATPase specific phosphate production: 39.3±9.4 % of control
[5]
  cAMP levels in choroid plexus explants: increased
[5]; listed as exendin-4
  cAMP levels in choroid plexus explants: increased levels of cAMP
[6]
  intracellular Na+ levels (Sodium Green fluorescence): higher numbers of intense fluorescent choroid plexus epithelial cells with no treatment
[6]; listed as exendin-4
  intracellular Na+ levels (Sodium Green fluorescence): reduce intracellular sodium
[7]; 100 nM, 30 minutes, 1 mM IBMX
  increase in cAMP compared to baseline: 2 fold
[7]; FIG. 10A
  cAMP levels in CPe cells compared to control (in words): significantly increased
[8]
  GLP-1R localisation after 15 minutes: predominantly restricted to the apical surface; also recorded: relocation of the GLP-1R to the apical surface
[8]; 30 minutes
  GLP-1R localisation after 30 minutes: translocated back to the cytoplasm; also recorded: internalised
[9]; 3 hours, vs aCSF
  GLP-1R mRNA level: significant increases
  GLP-1R protein level: significant increases
[9]; 6 hours
  GLP-1R mRNA level: returned to basal levels
  GLP-1R protein level: remained high
[10]; 1 μg/kg
  change in ICP from baseline: lowered the ICP from baseline
[10]; 3 μg/kg
  change in ICP from baseline: lowered the ICP from baseline
[10]; 5 μg/kg
  change in ICP from baseline: greatest reduction
[10]; 5 μg/kg, 24 hours
  ICP over a 24 hour period: remained reduced
[10]; conscious rats, 20 μg/kg subcutaneous
  time to significant ICP reduction compared to saline: ≤ 10 min
[10]; conscious rats, 20 μg/kg subcutaneous, 60 minutes recording
  persistence of ICP reduction during recording: remained significantly lower for the rest of the recording; also recorded: lasted for the full 60 minutes
[10]; conscious rats, 20 μg/kg subcutaneous, within 10 minutes
  ICP reduction from baseline: 60.6±4.9%

## Exendin-9
[8]
  GLP-1R localisation after 15 minutes: predominantly restricted to the apical surface; also recorded: restricted to the apical membrane

## myristoylated protein kinase inhibitor (PKI)-(14-22)-amide (Myristoyl-SGRTGRRNA-NH2; UniProt P61925 14-22, looked up, fragment) [PKA inhibitor]
[4]; 5 μM PKA inhibitor + 100 nM Exendin-4
  effect on the Exendin-4 reduction in Na+K+ATPase activity: abolish the Exendin-4 reduction
